Test results reported in the NIST ThermoML archive (doi:10.1016/j.jct.2005.03.019).
Where “and” joins values, the source holds several entries; their conditions need not be identical. Identical values can stand only once. Numbers after ± are expanded uncertainties.

How the values were obtained:
[1] = refractive index (Na D-line) (dimensionless); conditions: 101.33 kPa, Liquid, Standard Abbe refractometry
[2] = 101 kPa, Liquid, Vibrating tube method
[3] = xn = mol fraction of the nth substance listed; conditions: 101 kPa, Liquid, Vibrating tube method

## Cc1ccccc1 [toluene]
[1]; 298.15 K
  refractive index: 1.4965 ± 0.0004
[2]; 293.15 K
  mass density: 866.8 ± 0.1 kg/m3
[2]; 303.15 K
  mass density: 857.5 ± 0.1 kg/m3
[2]; 313.15 K
  mass density: 848.2 ± 0.1 kg/m3
[2]; 323.15 K
  mass density: 838.9 ± 0.1 kg/m3
[2]; 333.15 K
  mass density: 829.5 ± 0.1 kg/m3
[2]; 343.15 K
  mass density: 820 ± 0.1 kg/m3
[2]; 353.15 K
  mass density: 810.5 ± 0.1 kg/m3

## CCc1ccccc1 [ethylbenzene] + CC1COC(=O)O1
[3]; 293.15 K, x1 = 1
  mass density: 867.8 ± 0.2 kg/m3
[3]; 303.15 K, x1 = 1
  mass density: 858.6 ± 0.2 kg/m3
[3]; 313.15 K, x1 = 1
  mass density: 851.8 ± 0.2 kg/m3
[3]; 323.15 K, x1 = 1
  mass density: 847.6 ± 0.2 kg/m3
[3]; 333.15 K, x1 = 1
  mass density: 845.8 ± 0.2 kg/m3

## c1ccccc1 [benzene] + CC1COC(=O)O1
[3]; 293.15 K, x1 = 1
  mass density: 877.8 ± 0.1 kg/m3
[3]; 303.15 K, x1 = 1
  mass density: 868 ± 0.1 kg/m3
[3]; 313.15 K, x1 = 1
  mass density: 857.9 ± 0.1 kg/m3
[3]; 323.15 K, x1 = 1
  mass density: 847.4 ± 0.1 kg/m3
[3]; 333.15 K, x1 = 1
  mass density: 836.6 ± 0.1 kg/m3
[3]; 343.15 K, x1 = 1
  mass density: 825.4 ± 0.1 kg/m3
[3]; 353.15 K, x1 = 1
  mass density: 813.9 ± 0.1 kg/m3

## CC1COC(=O)O1 (stereo not drawn) [4-methyl-1,3-dioxolan-2-one]
[1]; 293.15 K
  refractive index: 1.42095 ± 0.0004
[2]; 293.15 K
  mass density: 1200.3 ± 0.1 kg/m3
[2]; 303.15 K
  mass density: 1180.6 ± 0.1 kg/m3
[2]; 313.15 K
  mass density: 1161.3 ± 0.1 kg/m3 and 1161.2 ± 0.1 kg/m3
[2]; 323.15 K
  mass density: 1142.4 ± 0.1 kg/m3
[2]; 333.15 K
  mass density: 1124 ± 0.1 kg/m3
[2]; 343.15 K
  mass density: 1106 ± 0.1 kg/m3
[2]; 353.15 K
  mass density: 1088.4 ± 0.1 kg/m3

## C=Cc1ccccc1 [styrene]
[1]; 298.15 K
  refractive index: 1.546 ± 0.0011
[2]; 293.15 K
  mass density: 906 ± 4.5 kg/m3
[2]; 303.15 K
  mass density: 896.4 ± 4.4 kg/m3
[2]; 313.15 K
  mass density: 886.9 ± 4.3 kg/m3
[2]; 323.15 K
  mass density: 877.3 ± 4.2 kg/m3
[2]; 333.15 K
  mass density: 867.8 ± 4.1 kg/m3
[2]; 343.15 K
  mass density: 858.2 ± 4 kg/m3
[2]; 353.15 K
  mass density: 848.6 ± 4 kg/m3

## CCc1ccccc1 [ethylbenzene]
[1]; 298.15 K
  refractive index: 1.4962 ± 0.0005
[2]; 293.15 K
  mass density: 867.8 ± 0.2 kg/m3
[2]; 303.15 K
  mass density: 858.6 ± 0.2 kg/m3
[2]; 313.15 K
  mass density: 851.8 ± 0.2 kg/m3
[2]; 323.15 K
  mass density: 847.6 ± 0.2 kg/m3
[2]; 333.15 K
  mass density: 845.8 ± 0.2 kg/m3

## Cc1ccccc1 [toluene] + CC1COC(=O)O1
[3]; 293.15 K, x1 = 1
  mass density: 866.8 ± 0.1 kg/m3
[3]; 303.15 K, x1 = 1
  mass density: 857.5 ± 0.1 kg/m3
[3]; 313.15 K, x1 = 1
  mass density: 848.2 ± 0.1 kg/m3
[3]; 323.15 K, x1 = 1
  mass density: 838.9 ± 0.1 kg/m3
[3]; 333.15 K, x1 = 1
  mass density: 829.5 ± 0.1 kg/m3
[3]; 343.15 K, x1 = 1
  mass density: 820 ± 0.1 kg/m3
[3]; 353.15 K, x1 = 1
  mass density: 810.5 ± 0.1 kg/m3

## c1ccccc1 [benzene]
[1]; 298.15 K
  refractive index: 1.5009 ± 0.0004
[2]; 293.15 K
  mass density: 877.8 ± 0.1 kg/m3
[2]; 303.15 K
  mass density: 868 ± 0.1 kg/m3
[2]; 313.15 K
  mass density: 857.9 ± 0.1 kg/m3
[2]; 323.15 K
  mass density: 847.4 ± 0.1 kg/m3
[2]; 333.15 K
  mass density: 836.6 ± 0.1 kg/m3
[2]; 343.15 K
  mass density: 825.4 ± 0.1 kg/m3
[2]; 353.15 K
  mass density: 813.9 ± 0.1 kg/m3

## CC1COC(=O)O1 (stereo not drawn) [4-methyl-1,3-dioxolan-2-one] + C=Cc1ccccc1
[3]; 293.15 K, x2 = 0
  mass density: 1200.3 ± 0.1 kg/m3
[3]; 303.15 K, x2 = 0
  mass density: 1180.6 ± 0.1 kg/m3
[3]; 313.15 K, x2 = 0
  mass density: 1161.2 ± 0.1 kg/m3
[3]; 333.15 K, x2 = 0
  mass density: 1124 ± 0.1 kg/m3
[3]; 343.15 K, x2 = 0
  mass density: 1106 ± 0.1 kg/m3
[3]; 353.15 K, x2 = 0
  mass density: 1088.4 ± 0.1 kg/m3
